# Test system: ATF4 translation (ISR pathway activation)
# Assay: ATF4 Nano Luciferase reporter integrated stress response (ISR) assay in H4 ATF4-NLuc (clone 17) cells
# Assay type: cell-based, human
# Conditions: H4 ATF4-NLuc (clone 17) cells; compounds 30 minutes at 37 degree Celsius, then 50 um sodium arsenite for 6 additional hours; luminescence readout; read-out: IC50
# Description: Cellular stress leads to activation of the integrated stress response pathway through one of four eukaryotic initiation factor 2α kinases and halts global translation, while allowing for the translation of select transcripts like ATF4 (activating transcription factor 4) that are important for the response to cellular stress. During normal conditions, small open reading frames (ORFs) in the 5′ UTR of ATF4 occupy the ribosome and prevent translation of the coding sequence of ATF4. During stress conditions however, the ribosome scans past these upstream ORFs and preferentially begins translation at the coding sequence of ATF4. In this way, the translation, and thus protein level of ATF4 is a readout of ISR pathway activation. Thus, a fusion of the uORFs and the beginning of the coding sequence of ATF to a common cellular reporter like nano-luciferase allows for a sensitive and high-throughput readout of ISR pathway activity.
# Compounds as provided herein were tested in the following assay. The ATF4 Nano Luciferase reporter was constructed by fusing the human full length 5′ untranslated region (5′-UTR) and a small portion of the coding sequence of the ATF4 gene upstream of the Nano Luciferase (NLuc) coding sequence lacking it's start codon. Specifically, nucleotides +1 through +364 (relative to the transcriptional start site) of ATF4 transcript variant 2 (NCBI NM_182810.2) flanked 5′ by EcoRI and 3′ by BamHI restriction enzyme sites were synthesized and cloned into the EcoRI/BamHI cloning sites of pLVX-EF1a-IRES-Puro lentivirus vector (Clontech). […]. H4 cells were selected with […] Puromycin, and clonal cell lines generated by limiting dilution. We utilized this cell line to generate an integrated stress response (ISR) assay to evaluate the activity of ISR pathway inhibitors via luminescence readout. The H4 ATF4-NLuc (clone 17) cell line is plated at a density of […] in 96-well or 384-well respectively in DMEM+10% fetal bovine serum. 24-hours later test compounds diluted in dimethyl sulfoxide (DMSO) are added for 30 minutes at 37 degree Celsius, followed by ISR pathway activation with 50 um sodium arsenite aqueous solution for 6 additional hours. Nano Glo luciferase reagent (N1150, Promega) is added according to manufacturer instructions and the luminescence signal (corresponding to the level of ATF4 translation and thus ISR pathway activation) is read with a standard plate reader with luminescence detection capabilities.
# In the table below, activity of the tested compounds is provided in Table 3 as follows: +++=IC50<1 μM; ++=IC50 1-10 μM; +=IC50>10 μM.
row,Structure (SMILES),IC50
1,"O=C(COc1ccc(Cl)cc1)NC12CC(NC(=O)COC3CC(C(F)(F)F)C3)(C1)C2 (single isomer, unassigned) [3 (second eluting isomer), 2-(4-chlorophenoxy)-N-(3-(2-(3-(trifluoromethyl)cyclobutoxy)acetamido)bicyclo[1.1.1]pentan-1-yl)acetamide]",< 1000 nM
2,"O=C(COc1ccc(Cl)c(F)c1)NC12CC(NC(=O)COC3CC(C(F)(F)F)C3)(C1)C2 (single isomer, unassigned) [12 (second eluting isomer), 2-(4-chloro-3-fluorophenoxy)-N-(3-(2-(3-(trifluoromethyl)cyclobutoxy)acetamido)bicyclo[1.1.1]pentan-1-yl)acetamide]",< 1000 nM
3,"O=C(COc1ccc(Cl)c(F)c1)NC1CC(OCCOC2CC(OC(F)(F)F)C2)C1 (single isomer, unassigned) [42 (isomer 2), 2-(4-chloro-3-fluoro-phenoxy)-N-[3-[2-[3-cis-(trifluoromethoxy)cyclobutoxy]ethoxy]-trans-cyclobutyl]acetamide]",< 1000 nM

# Same assay, conditions: Homo sapiens, 0.5 h
row,Structure (SMILES),IC50
1,"O=C(COc1ccc(Cl)cc1)NC12CC(NC(=O)COC3CCC3)(C1)C2 [Example 1, 2-(4-chlorophenoxy)-N-(3-(2-cyclobutoxyacetamido)bicyclo[1.1.1]pentan-1-yl)acetamide]",< 1000 nM

# Same assay, conditions: Homo sapiens, 0.5 h; H4 ATF4-NLuc (clone 17) cells; compounds 30 minutes at 37 degree Celsius, then 50 um sodium arsenite for 6 additional hours; luminescence readout; read-out: IC50
row,Structure (SMILES),IC50
1,"O=C(COc1ccc(Cl)cc1)NC12CC(NC(=O)COC3CC(C(F)(F)F)C3)(C1)C2 (single isomer, unassigned) [3 (first eluting isomer), 2-(4-chlorophenoxy)-N-(3-(2-(3-(trifluoromethyl)cyclobutoxy)acetamido)bicyclo[1.1.1]pentan-1-yl)acetamide]",< 1000 nM
2,"O=C(COc1ccc(Cl)c(F)c1)NC12CC(NC(=O)COC3CC(C(F)(F)F)C3)(C1)C2 (single isomer, unassigned) [12 (first eluting isomer), 2-(4-chloro-3-fluorophenoxy)-N-(3-(2-(3-(trifluoromethyl)cyclobutoxy)acetamido)bicyclo[1.1.1]pentan-1-yl)acetamide]",< 1000 nM
3,"O=C(COc1ccc(Cl)c(F)c1)NC1CC(OCCOC2CC(OC(F)(F)F)C2)C1 (single isomer, unassigned) [42 (isomer 1), 2-(4-chloro-3-fluoro-phenoxy)-N-[3-[2-[3-cis-(trifluoromethoxy)cyclobutoxy]ethoxy]-cis-cyclobutyl]acetamide]",< 1000 nM
4,"O=C(COC1CC(OC(F)(F)F)C1)NC12CC(NC(=O)[C@H]3CCc4cc(C(F)(F)F)ccc4O3)(C1)C2 (single isomer, unassigned) [Example 72 (first eluting isomer), N-(3-(2-(3-cis-(trifluoromethoxy)cyclobutoxy)acetamido)bicyclo[1.1.1]pentan-1-yl)-6-(trifluoromethyl)chroman-2-carboxamide]",< 1000 nM
5,"O=C(COC1CC(OC(F)(F)F)C1)NC12CC(NC(=O)[C@@H]3CCc4cc(C(F)(F)F)ccc4O3)(C1)C2 (single isomer, unassigned) [Example 72 (second eluting isomer), N-(3-(2-(3-cis-(trifluoromethoxy)cyclobutoxy)acetamido)bicyclo[1.1.1]pentan-1-yl)-6-(trifluoromethyl)chroman-2-carboxamide]",< 1000 nM
6,"O=C(COc1ccc(Cl)c(F)c1)NC1CCN(c2ccnc(C3CC(OC(F)(F)F)C3)n2)CC1 [58 (cis isomer), 2-(4-chloro-3-fluorophenoxy)-N-(1-(2-(3-cis-(trifluoromethoxy)cyclobutyl)pyrimidin-4-yl)piperidin-4-yl)acetamide]",< 1000 nM
7,"O=C(COc1ccc(Cl)cc1)NC12CC(NC(=O)COC3CC(F)(F)C3)(C1)C2 [Example 2, 2-(4-chlorophenoxy)-N-(3-(2-(3,3-difluorocyclobutoxy)acetamido)bicyclo[1.1.1]pentan-1-yl)acetamide]",< 1000 nM
8,"O=C(COc1ccc(Cl)cc1)NC12CC(NC(=O)COC3CC4(CCC4)C3)(C1)C2 [Example 4, 2-(4-chlorophenoxy)-N-(3-(2-(spiro[3.3]heptan-2-yloxy)acetamido)bicyclo[1.1.1]pentan-1-yl)acetamide]",< 1000 nM

# Reference: patent US20210130308A1, “MODULATORS OF EUKARYOTIC INITIATION FACTOR 2” (Denali Therapeutics Inc., priority 2018, published 2021)
